Publication PMC11200585, “Prospects for Prostate Cancer Chemotherapy: Cytotoxic Evaluation and Mechanistic Insights of Quinolinequinones with ADME/PK Profile” (Biomedicines, 2024)

Tests used:
Format in all cases: cell-based, human
SNB-75 = assay: NCI-60 five-dose assay (CNS cancer); conditions: 48 h, SRB
NCI-H23 [1] = assay: NCI-60 five-dose assay (non-small cell lung cancer); conditions: 48 h, SRB
TK-10 = assay: NCI-60 five-dose assay (renal cancer); conditions: 48 h, SRB
SN12C = assay: NCI-60 five-dose assay (renal cancer); conditions: 48 h, SRB
M14 = assay: NCI-60 five-dose assay (melanoma); conditions: 48 h, SRB
NCI-H460 [2] = assay: NCI-60 five-dose assay (non-small cell lung cancer); conditions: 48 h, SRB
EKVX [3] = assay: as above; conditions: 48 h, SRB
HCT-15 = assay: NCI-60 five-dose assay (colon cancer); conditions: 48 h, SRB
T-47D = assay: NCI-60 five-dose assay (breast cancer); conditions: Homo sapiens, T47D, 48 h, SRB
UO-31 = assay: NCI-60 five-dose assay (renal cancer); conditions: 48 h, SRB
SF-539 = assay: NCI-60 five-dose assay (CNS cancer); conditions: 48 h, SRB
HOP-62 [4] = assay: NCI-60 five-dose assay (non-small cell lung cancer); conditions: 48 h, SRB
HCC-2998 = assay: NCI-60 five-dose assay (colon cancer); conditions: 48 h, SRB
U251 = assay: NCI-60 five-dose assay (CNS cancer); conditions: SRB
786-0 = assay: NCI-60 five-dose assay (renal cancer); conditions: 48 h, SRB
UACC-62 = assay: NCI-60 five-dose assay (melanoma); conditions: 48 h, SRB
SW-620 = assay: NCI-60 five-dose assay (colon cancer); conditions: 48 h, SRB
SK-OV-3 = assay: NCI-60 five-dose assay (ovarian cancer); conditions: 48 h, SRB
MDA-MB-231/ATCC = assay: NCI-60 five-dose assay (breast cancer); conditions: 48 h, SRB
MCF7 = assay: NCI-60 five-dose assay (breast cancer); conditions: 48 h, SRB
HOP-92 [5] = assay: NCI-60 one-dose screen (non-small cell lung cancer); conditions: 10 µM single dose, 48 h
Method: (§1) The obtained quinolinequinones were submitted to NCI, Bethesda, USA, and, as per standard protocol of NCI, all compounds were evaluated for their antiproliferative activity at single-dose assay (10 µM concentration in DMSO) on a panel of 60 cancer cell lines derived from leukemia, non-small-cell lung, colon, CNS, melanoma, ovarian, renal, prostate, and breast, as per protocol. Tested compounds were added to the microtiter culture plates followed by incubation for 48 h at 37 °C. Sulforhodamine B (SRB), a protein-binding dye, is used for endpoint determination. The percent of the growth of the treated cells was determined in comparison to the untreated control cells and the results of each tested compound were reported. Data from one-dose experiments pertain to the percentage growth at 10 μM [16, 17, 18].

NCI-H460 [6] = assay: as above; conditions: 10 µM single dose, 48 h
Method: as §1

NCI-H23 [7] = assay: as above; conditions: 10 µM single dose, 48 h
Method: as §1

HOP-62 [8] = assay: as above; conditions: 10 µM single dose, 48 h
Method: as §1

NCI-H226 = assay: as above; conditions: 10 µM single dose
Method: as §1

A549/ATCC = assay: as above; conditions: 10 µM single dose, 48 h
Method: as §1

NCI-H522 [9] = assay: as above; conditions: 10 µM single dose, 48 h
Method: as §1

NCI-H322M = assay: as above; conditions: 10 µM single dose, 48 h
Method: as §1

EKVX [10] = assay: as above; conditions: 10 µM single dose
Method: as §1

SK-MEL-5 = assay: NCI-60 five-dose assay (melanoma); conditions: 48 h, SRB
HT29 = assay: NCI-60 five-dose assay (colon cancer); conditions: SRB
HOP-92 [11] = assay: NCI-60 five-dose assay (non-small cell lung cancer); conditions: 48 h, SRB
NCI-H522 [12] = assay: as above; conditions: 48 h, SRB
SF-268 = assay: NCI-60 five-dose assay (CNS cancer); conditions: 48 h, SRB
[13] = Homo sapiens, read-out: LC50 (the source's name)

COc1ccccc1NC1=C(Cl)C(=O)c2nc(C)ccc2C1=O [AQQ1]
TGI (SNB-75): 2.84 µM
GI50 (SNB-75; Homo sapiens): 1.5 µM
LC50 (50% lethal concentration) (SNB-75; Homo sapiens): 5.39 µM
TGI (NCI-H23 [1]): 3.30 µM
GI50 (NCI-H23 [1]; Homo sapiens): 1.47 µM
CC50 (NCI-H23 [1]; [13]): 7.45 µM
TGI (TK-10): 3.86 µM
GI50 (TK-10; Homo sapiens): 2.34 µM
LC50 (concentration killing 50% of starting cells) (TK-10; Homo sapiens): 6.36 µM
TGI (SN12C): 3.29 µM
GI50 (SN12C; Homo sapiens): 1.7 µM
LC50 (concentration killing 50% of starting cells) (SN12C; Homo sapiens): 6.36 µM
TGI (M14): 3.81 µM
GI50 (M14; Homo sapiens): 1.82 µM
LC50 (M14; Homo sapiens): 7.96 µM
TGI (NCI-H460 [2]): 12 µM
GI50 (NCI-H460 [2]; Homo sapiens): 3.22 µM
CC50 (NCI-H460 [2]; [13]): 52.7 µM
TGI (EKVX [3]): 3.05 µM
GI50 (EKVX [3]; Homo sapiens): 1.61 µM
CC50 (EKVX [3]; [13]): 5.78 µM
TGI (HCT-15): 3.02 µM
GI50 (HCT-15; Homo sapiens): 1.33 µM
CC50 (HCT-15; [13]): 6.83 µM
GI50 (T-47D): 1.37 µM
CC50 (T-47D; read-out: LC50 (the source's name)): > 100 µM
TGI (UO-31): 2.73 µM
GI50 (UO-31; Homo sapiens): 1.42 µM
LC50 (lethal concentration 50%) (UO-31; Homo sapiens): 5.26 µM
TGI (SF-539): 3.13 µM
GI50 (SF-539; Homo sapiens): 1.68 µM
LC50 (SF-539; Homo sapiens): 5.81 µM
TGI (HOP-62 [4]): 6.98 µM
GI50 (HOP-62 [4]; Homo sapiens): 2.41 µM
LC50 (concentration killing 50% of cells) (HOP-62 [4]; Homo sapiens): 37.5 µM
TGI (HCC-2998): 3.46 µM
GI50 (HCC-2998; Homo sapiens): 1.87 µM
LC50 (concentration killing 50% of cells) (HCC-2998; Homo sapiens): 6.42 µM
TGI (U251; 48 h): 3.73 µM
GI50 (U251; Homo sapiens, U-251, 48 h): 1.85 µM
LC50 (concentration killing 50% of cells) (U251; Homo sapiens, U-251, 48 h): 7.53 µM
TGI (786-0): 3.61 µM
GI50 (786-0; Homo sapiens): 1.91 µM
LC50 (786-0; Homo sapiens): 6.82 µM
TGI (UACC-62): 3.37 µM
GI50 (UACC-62; Homo sapiens): 1.82 µM
LC50 (concentration killing 50% of cells) (UACC-62; Homo sapiens): 6.25 µM
TGI (SW-620): 3.73 µM
GI50 (SW-620; Homo sapiens): 1.84 µM
LC50 (SW-620; Homo sapiens): 7.56 µM
TGI (SK-OV-3): 27.5 µM
GI50 (SK-OV-3; Homo sapiens): 12.6 µM
LC50 (50% net cell kill) (SK-OV-3; Homo sapiens): 59.8 µM
TGI (MDA-MB-231/ATCC): 2.53 µM
GI50 (MDA-MB-231/ATCC; Homo sapiens): 1.19 µM
LC50 (concentration killing 50% of cells) (MDA-MB-231/ATCC; Homo sapiens): 5.37 µM
TGI (MCF7): 4.49 µM
GI50 (MCF7; Homo sapiens): 1.78 µM
LC50 (MCF7; Homo sapiens): > 100 µM
GP (growth percentage) (HOP-92 [5]): −83.81%
GP (growth percentage) (NCI-H460 [6]): 70.83%
GP (growth percentage) (NCI-H23 [7]): −8.37%
GP (growth percentage) (HOP-62 [8]): 74.12%
GP (growth percentage) (NCI-H226; 48 h): 29.65%
inhibition at 10 µM (NCI-H226; Homo sapiens): 70.3%
GP (growth percentage) (A549/ATCC): 101.36%
GP (growth percentage) (NCI-H522 [9]): −48.50%
GP (growth percentage) (NCI-H322M): 71.14%
GP (growth percentage) (EKVX [10]; 48 h): 28.52%
inhibition at 10 µM (EKVX [10]; Homo sapiens): 71.5%
TGI (SK-MEL-5): 3.17 µM
GI50 (SK-MEL-5; Homo sapiens): 1.75 µM
CC50 (SK-MEL-5; [13]): 5.74 µM
TGI (HT29; 48 h): 4.49 µM
GI50 (HT29; Homo sapiens, HT-29, 48 h): 2.13 µM
LC50 (concentration killing 50% of cells) (HT29; Homo sapiens, HT-29, 48 h): 9.46 µM
TGI (HOP-92 [11]): 3.30 µM
GI50 (HOP-92 [11]; Homo sapiens): 1.85 µM
LC50 (50% lethal concentration) (HOP-92 [11]; Homo sapiens): 5.91 µM
TGI (NCI-H522 [12]): 3.36 µM
GI50 (NCI-H522 [12]; Homo sapiens): 1.81 µM
LC50 (NCI-H522 [12]; Homo sapiens): 6.24 µM
TGI (SF-268): 3.05 µM
GI50 (SF-268; Homo sapiens): 1.53 µM
LC50 (concentration killing 50% of cells) (SF-268; Homo sapiens): 6.06 µM
